Reference: patent EP4635966A1, “SYNTHETIC VARIANTS OF THE GANGLIOSIDE NGCGM3 AND USE THEREOF IN CANCER TREATMENT” (Centro de Inmunologia Molecular, priority 2022, dated 2024)

Tests used:
iNKT cells = experiment: In vivo iNKT cell activation: serum IFNγ by ELISA after i.p. injection; parameters: species or system C57BL/6 mice; details: 200 µg i.p.; blood 16 hours after administration; Figure 7
Procedure: C57BL/6 mice were injected intraperitoneally with 200 µg of natural NGcGM3 ganglioside, NGcGM3 d18:1-C24:1, NGcGM3 d18:1-C 18:0 and 2 µg of αGalCer or vehicle (5.6 % sucrose, 0.75 % L-histidine and 0.5 % Tween-20) and blood was drawn 16 hours after the administration. Serum IFNγ levels were assessed by ELISA as an indirect measure of iNKT cell activation (Mouse IFNy ELISA Ready-SET-Go!, eBioscience).

P3X63 myeloma cells = experiment: Subcutaneous P3X63 myeloma tumor growth (tumor volume); type: in vivo, BALB/c mice; details: day 5; for TV < 36 mm^3 (percentage distribution of tumor volume of the animals) / TV > 36 mm^3 (percentage distribution of tumor volume of the animals): Example 5, Table 1, i.p. on days 1, 5 and 9 (200 µg NGcGM3 d18:1-C24:1); for TV < 36 mm^3 (percentage distribution of tumor volume of the animals) / TV > 36 mm^3 (percentage distribution of tumor volume of the animals) / TV < 36 mm^3 (percentage distribution of tumor volume of animals) / TV > 36 mm^3 (percentage distribution of tumor volume of animals): 1x10^6 P3X63 s.c.; for growth of subcutaneous tumors: Example 5, p<0.001 for NGcGM3 d18:1-C24:1, p<0.05 for αGalCer vs placebo; for TV < 36 mm^3 (percentage distribution of tumor volume of animals) / TV > 36 mm^3 (percentage distribution of tumor volume of animals): Example 10, Table 2, treatment on days 1, 5 and 9; for antitumor effect (inhibition of tumor growth vs control group): Example 10, p=0.0031 NGcGM3 d18:1-C24:1, p=0.0004 GlycoVax 24:1
Procedure: 1x10^6 P3X63 cells were implanted subcutaneously into syngeneic BALB/c mice. Animals were randomized, divided into groups of 6-8 and received intraperitoneal treatments with 200 µg NGcGM3 d18:1-C24:1 ganglioside, αGalCer or vehicle (5.6% sucrose solution, 0.75% L-histidine and 0.5% Tween20 0.5%) on days 1, 5 and 9. Tumor diameters were measured with a caliper and tumor volume (TV) was calculated according to the formula: TV (mm^3) = π/6 × major diameter × (minor diameter)^2. […] The individual tumor volume values of the animals in each group and the mean and standard deviation of the mean in each case on day 5 of the experiment are shown. […] Table 1. Percentage distribution of tumor volume of the animals in each group.
1x10^6 P3X63 myeloma cells were implanted subcutaneously into syngeneic BALB/c mice. Animals were randomized, divided into groups of 6-8 and received treatments with vehicle solution (5.6% sucrose, 0.75% L-histidine and 0.5% Tween-20), αGalCer, NGcGM3 d18:1-C24:1 or nanoparticles of OMPC and NGcGM3 d18:1-C24:1 (GlycoVax 24:1) on days 1, 5 and 9.
Subcutaneous tumor diameters were measured every 2-3 days with a caliper and TV was calculated according to the formula: TV (mm^3) = π/6 × major diameter × (minor diameter)^2. […]

[1] = tested on: FF13 mouse iNKT-cell hybridoma; experiment: In vitro iNKT cell activation: bmDC co-cultured with FF13 hybridoma, IL-2 by ELISA; type: cell-based; details: for activation of iNKT cell hybridoma (IL-2 secretion): Example 6
Procedure: The FF13 mouse iNKT-cell hybridoma previously described by Schumann J. (Schumann J. Eur J Immunol. 2007, 37:1431-41) was provided by Dr. Lucia Mori (University Hospital Basel, Switzerland) and was cultured in RPMI-1640 medium with GlutaMAX-I and 25 mM HEPES supplemented with 10 % heat-inactivated fetal bovine serum (FBS), 100 U/ml penicillin, 100 µg/ml streptomycin and 55 µM 2-mercaptoethanol.
Mature bone marrow precursor-derived dendritic cells (bmDC) were used as APCs for in vitro iNKT cell activation assays and in vivo adoptive transfer experiments. The bmDCs were obtained according to the previously described protocol of differentiation from bone marrow progenitors in the presence of granulocyte/macrophage colony stimulating factor (GM-CSF) (Inaba K. J ExpMed.1992, 176:1693-1702) with some modifications. Briefly, bone marrow progenitors were isolated from femurs and tibias of C57BL/6 mice and cultured in complete RPMI-1640 medium (RPMI-1640 with GlutaMAX-I, 10% FBS, 100 U/mL penicillin, 100 µg/mL streptomycin and 55 µM 2-mercaptoethanol) supplemented with 20 ng/mL GM-CSF (R&D Systems). The culture was fed with fresh medium on day 3 and maturation of bmDCs was induced with 1 µg/ml LPS. On day 7, cells were harvested and used for iNKT cell activation assays or adoptive transfer.
5x10^4 bmDC were grown in RPMI-1640 medium with 10% FBS in the presence of αGalCer at a concentration of 100 ng/ml and concentrations of 0.1, 1 and 10 µg/ml of natural NGcGM3 and the synthetic variants NGcGM3 d18:1-C24:1, NGcGM3 d18:1-C24:0, NGcGM3 d18:1-C18:0, NGcGM3 d18:1-C18:1 and NGcGM3 d18:1-C18:2 or vehicle (0.1 % DMSO) for 16 -24 hours. Then, 10^5 FF13 hybridoma cells were added and co-cultured with the bmDCs for 24 hours. The culture supernatants were collected and evaluated for IL-2 content by ELISA. […] Differences were observed between the NGcGM3 variants in terms of their antigenicity to iNKT cells based on the length and structure of the fatty acid in the ceramide.
5x10^4 bmDC were cultured in RPMI-1640 medium with 10% FBS in the presence of 10 µg/ml and 1 µg/ml of NGcGM3 d18:1-C24:1 ganglioside, GM3 d18:1-C24:1 or vehicle (0.1% DMSO) for 16-24 hours. Next, 10^5 FF13 hybridoma cells were added and co-cultured with the bmDCs for 24 hours. The culture supernatants were collected and IL-2 content quantified by ELISA. From Figure 8, the synthetic ganglioside variants NGcGM3 and GM3, with identical ceramide structure, have differences in their ability to stimulate iNKT cells.
5x10^4 bmDC were cultured in RPMI-1640 medium with 10% FBS in the presence of 100 ng/ml, 1 µg/ml or 10 µg/ml concentrations of nanoparticles, αGalCer or vehicle (0.1% DMSO) for 16 -24 hours. […] The culture supernatants were collected and IL-2 content quantified by ELISA. […]

EL-4 thymoma cells [2] = experiment: Survival of EL-4 tumor-bearing mice; type: in vivo, C57BL/6 mice; details: 200 µg i.p. on days 1, 5 and 9; p=0.0005 vs placebo
Procedure: Syngeneic C57BL/6 mice were inoculated intravenously through the tail vein with 2x10^5 EL-4 thymoma cells (ATCC TIB-39); mice were randomized and distributed into groups of 7-9 animals. Experimental groups received intraperitoneal treatments with 200 µg of ganglioside variants NGcGM3 d18:1-C24:1 and NGcGM3 from natural source or vehicle (5.6% sucrose solution, 0.75% L-histidine and 0.5% Tween20) on days 1, 5 and 9. The animals were monitored and sacrificed if they presented any sign or symptom that affected their ability to ingest food and water or compromised their general state of health, according to veterinary criteria.
Syngeneic C57BL/6 mice were inoculated intravenously through the tail vein with 2x10^5 EL-4 thymoma cells; mice were randomized and distributed into groups of 7-9 animals. On the day following tumor inoculation, 6x10^5 bmDC previously cultured for 16 hours with vehicle (DMSO 0.1%), NGcGM3 d18:1-C24:1 ganglioside (10 µg/ml) or the ganglioside extracted from a natural source (10 µg/ml) were administered in a single dose, intravenously. Cells were washed extensively with serum-free RPMI-1640 medium to remove excess of lipids before transfer. Mice were monitored for signs or symptoms that affected their ability to ingest food and water or compromised their general health status, according to veterinary criteria.

EL-4 thymoma cells [3] = experiment: EL-4 hepatic metastatic spread model (liver weight); type: in vivo, C57BL/6 mice
Procedure: Syngeneic C57BL/6 mice were inoculated intravenously through the tail vein with 2x10^5 EL-4 thymoma cells. Mice were randomized and distributed into groups of 7-9 animals. Experimental groups received intraperitoneal treatments with 200µg of synthetic and natural variants of NGcGM3 or vehicle (5.6% sucrose solution, 0.75% L-histidine and 0.5% Tween20) on days 1, 5 and 9. Animals were sacrificed 12-13 days after tumor inoculation, livers were removed and weighed to determine the level of hepatic metastatic spread. The liver weight of healthy animals of the same age and batch was used as a control.
Syngeneic C57BL/6 mice were inoculated intravenously through the tail vein with 2x10^5 EL-4 thymoma cells; mice were randomized and distributed into groups of 7-9 animals. Experimental groups received intraperitoneal treatments with 10-30 µg of nanoparticles of NGcGM3 d18:1-C24:1, NGcGM3 d18:1-C18:0 and natural NGcGM3 with OMPC of N. meningitidis on days 1, 5 and 9 or Tris/HCl solution (Placebo). Animals were sacrificed 12-13 days after tumor inoculation. To determine the level of liver metastatic spread, their livers were removed and weighed.
Syngeneic C57BL/6 mice were inoculated intravenously through the tail vein with 2x10^5 EL-4 thymoma cells; mice were randomized and distributed into groups of 7-9 animals. On the day following tumor inoculation, 6x10^5 bmDC, previously cultured for 16 hours with vehicle (DMSO 0.1%), NGcGM3 d18:1-C24:1 ganglioside (10 µg/ml) or NGcGM3 extracted from natural source (10 µg/ml) were administered in a single dose, intravenously. Cells were extensively washed with serum-free RPMI-1640 medium to remove excess of lipids before transfer. Animals were sacrificed 12-13 days after tumor inoculation, livers were collected and the level of hepatic metastatic spread was determined by weigh. Livers from healthy mice of the same age and batch were used as a reference. […] Clearly, the transfer of bmDC pulsed with NGcGM3 d18:1-C24:1, induce a significant reduction of EL-4 liver metastasis, compared to the placebo group, in which empty dendritic cells were transferred. […], the transfer of bmDC incubated with ganglioside extracted from a natural source was ineffective. (equal letters p>0.05, different letters p<0.05, ANOVA and Tukey tests). […]
To maintain the depletion of the populations of interest throughout the duration of the experiment, equal doses of depleting antibodies were administered on days 4 and 11 after tumor inoculation. Animals were sacrificed 12-13 days after tumor inoculation, livers were removed and the level of hepatic metastatic spread was determined by weigh. […]

| SMILES | serum IFNγ levels (in vivo activation of iNKT cells) (iNKT cells) | TV < 36 mm^3 (percentage distribution of tumor volume of the animals) (P3X63 myeloma cells) [%] | TV > 36 mm^3 (percentage distribution of tumor volume of the animals) (P3X63 myeloma cells) [%] | TV < 36 mm^3 (percentage distribution of tumor volume of the animals) (P3X63 myeloma cells; listed as NGcGM3 24:1) [%] | growth of subcutaneous tumors (P3X63 myeloma cells) | TV < 36 mm^3 (percentage distribution of tumor volume of animals) (P3X63 myeloma cells) [%] | TV > 36 mm^3 (percentage distribution of tumor volume of animals) (P3X63 myeloma cells) [%] | TV < 36 mm^3 (percentage distribution of tumor volume of animals) (P3X63 myeloma cells; listed as NGcGM3 24:1) [%] | antitumor effect (inhibition of tumor growth vs control group) (P3X63 myeloma cells) | activation of iNKT cell hybridoma (IL-2 secretion) ([1]; 100 ng/ml, same concentration as αGalCer) | activation of iNKT cell hybridoma (IL-2 secretion) ([1]; 0.1, 1 and 10 µg/ml on bmDC 16-24 h, co-culture 24 h, Figure 6) | activation of iNKT cell hybridoma (IL-2 secretion) ([1]; highest concentration tested, 10 µg/ml, αGalCer reference at 100 ng/ml) | iNKT cell activation (IL-2 secretion) compared with GM3 d18:1-C24:1 ([1]; Example 8, 10 µg/ml and 1 µg/ml, Figure 8) | survival of EL-4 tumor-bearing animals (EL-4 thymoma cells [2]) | antimetastatic effect (liver weight, hepatic metastatic spread) (EL-4 thymoma cells [3]; 2x10^5 EL-4 i.v., 200 µg i.p. on days 1, 5 and 9, livers weighed 12-13 days after inoculation, Figure 2) | anti-metastatic effect (liver weight), NK and NKT cell populations not affected (EL-4 thymoma cells [3]; Example 18, 200 µg i.p. on days 1, 5 and 9 + PBS) | anti-metastatic effect (liver weight) after depletion of NK and NKT cells (EL-4 thymoma cells [3]; Example 18, 200 µg i.p. on days 1, 5 and 9 + anti-NK1.1 Mab, Figure 18a) | anti-metastatic effect (liver weight) after depletion of NK cells only (EL-4 thymoma cells [3]; Example 18, 200 µg i.p. on days 1, 5 and 9 + anti-asialoGM1 antibody, Figure 18b) |
| --- | --- | --- | --- | --- | --- | --- | --- | --- | --- | --- | --- | --- | --- | --- | --- | --- | --- | --- |
| CCCCCCCCCCCCCC=CC(O)C(COC1OC(CO)C(OC2OC(CO)C(O)C(OC3(C(=O)O)CC(O)C(NC(=O)CO)C(C(O)C(O)CO)O3)C2O)C(O)C1O)NC(=O)CCCCCCCCCCCCCCCCC (stereo not shown) [NGcGM3 d18:1-C18:0, reference compound] | inactive | – | – | – | – | – | – | – | – | – | – | – | – | – | – | – | – | – |
| CCCCCCCCC=CCCCCCCCCCCCCCC(=O)NC(COC1OC(CO)C(OC2OC(CO)C(O)C(OC3(C(=O)O)CC(O)C(NC(=O)CO)C(C(O)C(O)CO)O3)C2O)C(O)C1O)C(O)C=CCCCCCCCCCCCCC [NGcGM3 d18:1-C24:1, O-[3,5-didesoxy-5-hydroxyacetamido-D-glycero-α-D-galacto-2-nonupyranosyl-(2→3)-O-(β-D-galactopyranosyl)-(1→4)-β-D-glucopyranosyl-(1→1)-(2R,3S,4E)-2-tetracos-15-enamido-4-octadecene-1,3-diol] | higher than in the rest of the experimental groups | 50 | 50 | 50 | significantly inhibited the growth of subcutaneous tumors | 50 | 50 | 50 | significant inhibition of tumor growth | able to activate iNKT cells | potent activation of FF13 hybridoma cells | surpass the effect of αGalCer | more potent effect on iNKT cell activation than the GM3 variant | significantly increased the survival | statistically significant antimetastatic effect | is present | abolishes the aforementioned anti-tumor effect | the antitumor effect is maintained |
| CCCCCCCCCCCCCCCCCCCCCCCCCC(=O)N[C@@H](CO[C@H]1O[C@H](CO)[C@H](O)[C@H](O)[C@H]1O)[C@H](O)[C@H](O)CCCCCCCCCCCCCC [αGalCer, α-galactosylceramide, reference compound] | – | 25 | 75 | – | significantly inhibited the growth of subcutaneous tumors | 25 | 75 | – | did not show a statistically significant antitumor effect | – | – | – | – | – | – | – | – | – |
